Test results reported in article PMC10620772, “Design, synthesis, and biological evaluation of new pyrimidine-5-carbonitrile derivatives as novel anti-cancer, dual EGFR^WT/COX-2 inhibitors with docking studies” (RSC Advances, 2023).

Key:
Assay in all cases: NCI60 antitumor screening
Format in all cases: cell-based, human
CCRF-CEM = test system: CCRF-CEM
SN12C = test system: SN12C
NCI-H226 = test system: NCI-H226
NCI-H522 = test system: NCI-H522
786–0 = test system: 786–0
SF-539 = test system: SF-539
UACC-62 = test system: UACC-62
OVCAR-8 = test system: OVCAR-8
LOX IMVI = test system: LOX IMVI
MDA-MB-468 = test system: MDA-MB-468
HOP-62 = test system: HOP-62
TK-10 = test system: TK-10
MALME-3M = test system: MALME-3M
NCI-H322M = test system: NCI-H322M
HT29 = test system: HT29
M14 = test system: M14
RXF 393 = test system: RXF 393
DU-145 = test system: DU-145
MDA-MB-435 = settings: Homo sapiens, MDA-MB-435, five-dose
[1] = Homo sapiens, SF-539, five-dose
[2] = Homo sapiens, MDA-MB-468, five-dose
[3] = Homo sapiens, NCI-H322M, five-dose

N#Cc1c(-c2ccc(F)cc2)nc(SCc2ccc(F)cc2)nc1N1CCNCC1 [4f, 2-((4-Fluorobenzyl)thio)-4-(4-fluorophenyl)-6-(piperazin-1-yl) pyrimidine-5-carbonitrile]
GI% (CCRF-CEM; 10 μM one-dose): 95.51% | GI50 (CCRF-CEM; Homo sapiens, CCRF-CEM, five-dose): 14.9 µM | CC50 (CCRF-CEM; Homo sapiens, CCRF-CEM, five-dose, read-out: LC50 (the source's name)): 76 µM | inhibition at 10 µM (CCRF-CEM; Homo sapiens, 10 μM single dose, CCRF-CEM (leukaemia), read-out: growth inhibition percent (GI%)): 95.5% | TGI (CCRF-CEM; five-dose): 33.60 µM | GI50 (SN12C; Homo sapiens, SN12C, five-dose): 15.3 µM | CC50 (SN12C; Homo sapiens, SN12C, five-dose, read-out: LC50 (the source's name)): 55.2 µM | inhibition at 10 µM (SN12C; Homo sapiens, 10 μM single dose, SN12C (renal cancer), read-out: growth inhibition percent (GI%)): > 100% | TGI (SN12C; five-dose): 29.00 µM | GI50 (NCI-H226; Homo sapiens, NCI-H226, five-dose): 15.9 µM | CC50 (NCI-H226; Homo sapiens, NCI-H226, five-dose, read-out: LC50 (the source's name)): 80.3 µM | inhibition at 10 µM (NCI-H226; Homo sapiens, 10 μM single dose, NCI-H226 (non-small cell lung cancer), read-out: growth inhibition percent (GI%)): 23.1% | TGI (NCI-H226; five-dose): 35.70 µM | GI50 (NCI-H522; Homo sapiens, NCI-H522, five-dose): 13.9 µM | CC50 (NCI-H522; Homo sapiens, NCI-H522, five-dose, read-out: LC50 (the source's name)): 64.3 µM | inhibition at 10 µM (NCI-H522; Homo sapiens, 10 μM single dose, NCI-H522 (non-small cell lung cancer), read-out: growth inhibition percent (GI%)): > 100% | TGI (NCI-H522; five-dose): 29.90 µM | GI50 (786–0; Homo sapiens, 786-0, five-dose): 13.8 µM | LC50 (concentration killing 50% of tumour cells) (786–0; Homo sapiens, 786-0, five-dose): 62.6 µM | inhibition at 10 µM (786–0; Homo sapiens, 10 μM single dose, 786–0 (renal cancer), read-out: growth inhibition percent (GI%)): > 100% | TGI (786–0; five-dose): 29.30 µM | GI50 (SF-539; [1]): 15.6 µM | LC50 (SF-539; [1]): 54.1 µM | inhibition at 10 µM (SF-539; Homo sapiens, 10 μM single dose, SF-539 (CNS cancer), read-out: growth inhibition percent (GI%)): > 100% | TGI (SF-539; five-dose): 29.00 µM | GI50 (UACC-62; Homo sapiens, UACC-62, five-dose): 15.9 µM | CC50 (UACC-62; Homo sapiens, UACC-62, five-dose, read-out: LC50 (the source's name)): 56.2 µM | inhibition at 10 µM (UACC-62; Homo sapiens, 10 μM single dose, UACC-62 (melanoma), read-out: growth inhibition percent (GI%)): > 100% | TGI (UACC-62; five-dose): 29.90 µM | GI50 (OVCAR-8; Homo sapiens, OVCAR-8, five-dose): 13.2 µM | CC50 (OVCAR-8; Homo sapiens, OVCAR-8, five-dose, read-out: LC50 (the source's name)): 70.6 µM | inhibition at 10 µM (OVCAR-8; Homo sapiens, 10 μM single dose, OVCAR-8 (ovarian cancer), read-out: growth inhibition percent (GI%)): > 100% | TGI (OVCAR-8; five-dose): 30.50 µM | GI50 (LOX IMVI; Homo sapiens, LOX IMVI, five-dose): 2.28 µM | CC50 (LOX IMVI; Homo sapiens, LOX IMVI, five-dose, read-out: LC50 (the source's name)): 22.7 µM | inhibition at 10 µM (LOX IMVI; Homo sapiens, 10 μM single dose, LOX IMVI (melanoma), read-out: growth inhibition percent (GI%)): > 100% | TGI (LOX IMVI; five-dose): 5.69 µM | GI50 (MDA-MB-468; [2]): 12.4 µM | LC50 (MDA-MB-468; [2]): 55.3 µM | inhibition at 10 µM (MDA-MB-468; Homo sapiens, 10 μM single dose, MDA-MB-468 (breast cancer), read-out: growth inhibition percent (GI%)): > 100% | TGI (MDA-MB-468; five-dose): 26.20 µM | GI50 (HOP-62; Homo sapiens, HOP-62, five-dose): 17 µM | CC50 (HOP-62; Homo sapiens, HOP-62, five-dose, read-out: LC50 (the source's name)): 65.8 µM | inhibition at 10 µM (HOP-62; Homo sapiens, 10 μM single dose, HOP-62 (non-small cell lung cancer), read-out: growth inhibition percent (GI%)): > 100% | TGI (HOP-62; five-dose): 33.40 µM | GI50 (TK-10; Homo sapiens, TK-10, five-dose): 15 µM | LC50 (TK-10; Homo sapiens, TK-10, five-dose): 58.8 µM | inhibition at 10 µM (TK-10; Homo sapiens, 10 μM single dose, TK-10 (renal cancer), read-out: growth inhibition percent (GI%)): > 100% | TGI (TK-10; five-dose): 29.70 µM | GI50 (MALME-3M; Homo sapiens, Malme-3M, five-dose): 14.7 µM | CC50 (MALME-3M; Homo sapiens, Malme-3M, five-dose, read-out: LC50 (the source's name)): 54.8 µM | inhibition at 10 µM (MALME-3M; Homo sapiens, 10 μM single dose, MALME-3M (melanoma), read-out: growth inhibition percent (GI%)): > 100% | TGI (MALME-3M; five-dose): 28.40 µM | GI50 (NCI-H322M; [3]): 14 µM | LC50 (50% lethal concentration) (NCI-H322M; [3]): 52.8 µM | inhibition at 10 µM (NCI-H322M; Homo sapiens, 10 μM single dose, NCI-H322M (non-small cell lung cancer), read-out: growth inhibition percent (GI%)): 64% | TGI (NCI-H322M; five-dose): 27.20 µM | inhibition at 10 µM (HT29; Homo sapiens, HT-29, 10 μM single dose, HT29 (colon cancer), read-out: growth inhibition percent (GI%)): > 100% | GI50 (HT29; Homo sapiens, HT-29, five-dose): 4.87 µM | CC50 (HT29; Homo sapiens, HT-29, five-dose, read-out: LC50 (the source's name)): 51.7 µM | TGI (HT29; five-dose): 17.30 µM | GI50 (M14; Homo sapiens, M14, five-dose): 13.6 µM | CC50 (M14; Homo sapiens, M14, five-dose, read-out: LC50 (the source's name)): 52.9 µM | inhibition at 10 µM (M14; Homo sapiens, 10 μM single dose, M14 (melanoma), read-out: growth inhibition percent (GI%)): > 100% | TGI (M14; five-dose): 26.80 µM | CC50 (RXF 393; Homo sapiens, RXF 393, five-dose, read-out: LC50 (the source's name)): 51.5 µM | inhibition at 10 µM (RXF 393; Homo sapiens, 10 μM single dose, RXF 393 (renal cancer), read-out: growth inhibition percent (GI%)): > 100% | TGI (RXF 393; five-dose): 21.40 µM | GI50 (DU-145; Homo sapiens, DU-145, five-dose): 16.8 µM | CC50 (DU-145; Homo sapiens, DU-145, five-dose, read-out: LC50 (the source's name)): 58.1 µM | inhibition at 10 µM (DU-145; Homo sapiens, DU-145, read-out: growth inhibition percent (GI%)): > 100% | TGI (DU-145; five-dose): 31.30 µM | GI50 (MDA-MB-435): 16.8 µM | CC50 (MDA-MB-435; read-out: LC50 (the source's name)): 58.4 µM
